Laboratory results taken from patent US20060198889A1, “Roflumilast and integrin inhibitor combination and treatement method” (priority 2005, published 2006).

Key:
[1] = tested on: mild/moderate asthmatics not treated with inhaled corticosteroids; test: ARES study: R411 monotherapy, 12 week treatment period; format: in vivo, human; settings: for Asthma control Questionnaire (Total Score), change from baseline / Morning asthma symptoms, change from baseline / Rescue β2-agonist use (puffs/d), change from baseline: ITT population
Experimental: The ARES study illustrated in FIG. 3 was designed to evaluate the safety and efficacy of monotherapy R411 over a 12 week treatment period in 480 mild/moderate asthmatics not treated with inhaled corticosteroids. Patients were randomized to one of four cohorts: 50, 200, 600 mg QD R411, or placebo (n=120/group). The primary endpoint in the study was change in FEV1 from baseline, and secondary endpoints included PEFR, asthma exacerbations, β2-agonist use, asthma control questionnaire, asthma symptom scores, and nocturnal awakenings. Small airway inflammation represents a clinically significant component of moderate to severe asthma that is not adequately controlled by currently available inhaled corticosteroids therapies.
ARES study evaluated the safety and efficacy of monotherapy with R411 over a 12-week treatment period in 479 mild/moderate asthmatics not treated with inhaled corticosteroids. Patients were randomized to one of four cohorts: 50, 200, 600 mg once daily R411, or placebo.

[2] = tested on: airway inflammation in the atopic primate; test: Airway inflammation in the atopic primate, oral R411 (FIG. 4); format: in vivo; settings: oral administration, atopic primate (FIG. 4)
α4/β1 integrin = α4/β1 integrin (Homo sapiens, UniProt P05556+P13612); test: Inhibition of α4/β1 binding to VCAM-1
α4/β1 integrin, sequence (P05556 21-798, one chain of several): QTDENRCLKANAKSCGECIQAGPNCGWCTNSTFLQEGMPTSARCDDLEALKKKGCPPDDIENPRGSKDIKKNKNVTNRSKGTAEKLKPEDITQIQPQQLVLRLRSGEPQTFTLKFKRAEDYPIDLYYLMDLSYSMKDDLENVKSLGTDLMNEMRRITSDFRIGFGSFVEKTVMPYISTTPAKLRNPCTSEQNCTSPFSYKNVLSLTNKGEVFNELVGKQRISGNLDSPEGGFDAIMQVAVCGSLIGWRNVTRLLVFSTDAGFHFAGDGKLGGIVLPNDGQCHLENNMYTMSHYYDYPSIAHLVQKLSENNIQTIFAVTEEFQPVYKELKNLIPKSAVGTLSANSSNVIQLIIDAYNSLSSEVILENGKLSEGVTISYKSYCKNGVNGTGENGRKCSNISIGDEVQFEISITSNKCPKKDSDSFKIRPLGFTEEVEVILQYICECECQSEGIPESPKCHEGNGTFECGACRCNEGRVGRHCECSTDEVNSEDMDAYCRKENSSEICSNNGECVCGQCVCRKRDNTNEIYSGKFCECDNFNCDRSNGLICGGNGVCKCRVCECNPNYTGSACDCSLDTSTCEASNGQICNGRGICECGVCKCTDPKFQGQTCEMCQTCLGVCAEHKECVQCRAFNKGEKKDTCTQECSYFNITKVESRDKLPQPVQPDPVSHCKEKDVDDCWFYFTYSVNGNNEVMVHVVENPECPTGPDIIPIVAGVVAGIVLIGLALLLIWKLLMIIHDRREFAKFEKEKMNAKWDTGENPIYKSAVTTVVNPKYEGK

α4/β7 integrin = target: T1, α4/β7 integrin (Homo sapiens, UniProt P13612+P26010); test: Inhibition of α4/β7 binding to MadCAM-1
T1 sequence (P13612 34-1032): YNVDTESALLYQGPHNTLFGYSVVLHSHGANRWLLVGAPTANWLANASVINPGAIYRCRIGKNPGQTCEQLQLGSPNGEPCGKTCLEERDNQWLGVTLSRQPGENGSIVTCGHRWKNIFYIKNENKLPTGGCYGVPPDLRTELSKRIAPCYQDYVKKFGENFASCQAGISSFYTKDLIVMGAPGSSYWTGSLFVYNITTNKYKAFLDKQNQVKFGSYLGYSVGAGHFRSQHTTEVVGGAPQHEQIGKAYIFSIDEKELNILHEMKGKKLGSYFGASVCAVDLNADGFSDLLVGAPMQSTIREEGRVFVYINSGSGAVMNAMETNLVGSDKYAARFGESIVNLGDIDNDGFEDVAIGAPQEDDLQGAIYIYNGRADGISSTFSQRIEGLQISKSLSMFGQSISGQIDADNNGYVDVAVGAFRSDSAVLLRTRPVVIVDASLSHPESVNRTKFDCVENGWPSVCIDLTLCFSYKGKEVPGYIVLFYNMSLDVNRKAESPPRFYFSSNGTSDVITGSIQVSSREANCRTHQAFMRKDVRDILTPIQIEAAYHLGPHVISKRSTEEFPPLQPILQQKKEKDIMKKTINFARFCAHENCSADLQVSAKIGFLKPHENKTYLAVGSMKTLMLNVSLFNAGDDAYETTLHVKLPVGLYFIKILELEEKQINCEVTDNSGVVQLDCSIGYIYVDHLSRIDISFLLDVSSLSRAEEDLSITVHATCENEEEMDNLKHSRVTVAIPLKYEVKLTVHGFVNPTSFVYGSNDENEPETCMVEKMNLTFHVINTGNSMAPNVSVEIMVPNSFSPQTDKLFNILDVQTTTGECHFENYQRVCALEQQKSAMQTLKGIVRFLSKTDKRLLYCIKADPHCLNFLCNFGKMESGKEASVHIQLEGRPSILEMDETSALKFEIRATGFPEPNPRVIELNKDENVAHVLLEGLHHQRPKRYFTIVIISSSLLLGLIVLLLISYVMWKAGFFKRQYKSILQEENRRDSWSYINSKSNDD
T1 sequence (P26010 20-798): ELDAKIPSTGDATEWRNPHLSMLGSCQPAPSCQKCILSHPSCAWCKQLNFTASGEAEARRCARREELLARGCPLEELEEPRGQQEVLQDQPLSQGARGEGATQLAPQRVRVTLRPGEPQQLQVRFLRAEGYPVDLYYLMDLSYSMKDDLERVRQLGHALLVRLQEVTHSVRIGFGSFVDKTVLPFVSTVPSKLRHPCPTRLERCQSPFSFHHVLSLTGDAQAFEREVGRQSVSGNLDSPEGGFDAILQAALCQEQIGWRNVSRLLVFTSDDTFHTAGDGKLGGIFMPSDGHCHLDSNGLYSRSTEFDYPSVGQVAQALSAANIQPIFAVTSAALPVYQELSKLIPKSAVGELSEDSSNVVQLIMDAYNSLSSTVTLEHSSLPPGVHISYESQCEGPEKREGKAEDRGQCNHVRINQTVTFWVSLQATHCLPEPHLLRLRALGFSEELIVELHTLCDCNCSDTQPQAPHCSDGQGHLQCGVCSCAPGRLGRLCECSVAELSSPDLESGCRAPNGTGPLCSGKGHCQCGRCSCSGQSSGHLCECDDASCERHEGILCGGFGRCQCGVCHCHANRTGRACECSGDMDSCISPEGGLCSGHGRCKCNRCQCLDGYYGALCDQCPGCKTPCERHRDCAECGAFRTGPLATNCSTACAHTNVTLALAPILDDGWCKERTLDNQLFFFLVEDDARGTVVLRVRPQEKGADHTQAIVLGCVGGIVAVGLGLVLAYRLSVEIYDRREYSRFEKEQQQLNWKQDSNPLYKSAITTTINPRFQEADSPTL

[3] = 12-week monotherapy, versus placebo

## CCN(CC)CCOC(=O)[C@H](Cc1ccc(NC(=O)c2c(Cl)cccc2Cl)cc1)NC(=O)c1c(C)cccc1Cl [R411, N-(2-Chloro-6-methylbenzoyl)-4-[(2,6-dichlorobenzoyl)amino]-L-phenylalanine-2-(diethylamino)ethyl ester]
[1]; [3]
  decrease in daytime asthma symptom score: Statistically significant improvements
  decrease in nocturnal symptom score: Statistically significant improvements
[1]; R411 200 mg once daily
  Asthma control Questionnaire (Total Score), change from baseline: −0.29 [2.08] Total Score
  Morning asthma symptoms, change from baseline: −0.34*[1.55]
[1]; R411 200 mg once daily, N = 117
  Rescue β2-agonist use (puffs/d), change from baseline: −0.36/[3.04] puffs/d
[1]; R411 600 mg once daily
  Asthma control Questionnaire (Total Score), change from baseline: −0.23 [2.00] Total Score
  Morning asthma symptoms, change from baseline: −0.33*[1.57]
[1]; R411 600 mg once daily, N = 119
  Rescue β2-agonist use (puffs/d), change from baseline: −0.41*/[3.11] puffs/d
[1]; compared to placebo
  Asthma Control Questionnaire Scores: Improvement
  Asthma Quality-of-Life: Improvement
[2]
  airway inflammation: attenuates
α4/β1 integrin
  binding of α4/β1 to vascular cell adhesion molecule (VCAM-1): inhibits
  effectiveness against α4/β1 integrin: effective
α4/β7 integrin
  binding of α4/β7 to MadCAM-1: inhibits
  effectiveness against α4/β7 integrin: effective
